{"source": "patent US10160812B2", "about": "“Bispecific HER2 antibodies” (MedImmune, LLC, priority 2014, dated 2018)", "molecules": {"B1": {"name": "39S: lead optimized monoclonal antibody derived from the 1.39.1 antibody; VH SEQ ID NO:15, VL SEQ ID NO:16 (antibody, V domains shown)", "VH": "EVQLVESGGGLVKPGGSLRLSCAASGFTFSSYSMSWVRQAPGKGLEWVSSISSSSSYIYYADSVKGRFTISRDNAKNSLYLQMNSLRAEDTAVYYCARGGDAYNYYYFDYWGQGTLVTVSS", "VL": "DIVMTQTPLSLSVTPGQPASISCKSSQSVFFRSNNKNILAWYLQKPGQPPQLLIYWASSRESGVPDRFSGSGSGTDFTLKISRVEAEDVGVYYCQQYFGSPFTFGPGTKVDIK"}}, "key": {"[1]": {"test_system": "RT-112", "assay": "Disruption of intracellular microtubule network (immunofluorescence)", "assay_type": "cell-based, human", "details": "RT-112 (T-DM1 ineligible), 5 nM ADC overnight", "method": "(§1) On day 1, cells were harvested by trypsinization, resuspended in culture media, and then seeded in 8-well chamber slides at a density of 6×10^4 cells/well. Slides were incubated at 37° C./5% CO2 overnight. On day 2, media were aspirated to remove any unattached cells and then fresh media containing 5 nM ADC to be tested were added to the cells. Slides were incubated at 37° C./5% CO2 overnight. On day 3, each chamber was washed twice with 1×PBS. Cells were then fixed with 4% PFA for 20 min. At the end of fixation, the chambers were removed and slides were stained following standard immunofluorescence procedures. Briefly, cells were permeabilized using Triton X-100 and washed with 1×PBS containing Tween-20. Rabbit anti-human α-Tubulin Alexa-Fluor 488 (clone 11H10) was diluted by 1:100 in DAKO antibody diluent and added to the slides. After incubation at room temperature for 1 hour, slides were coversliped with ProLong® Gold Antifade Reagent containing DAPI. Stained cells were visualized by the Leica SP5 Confocal Microscope and the Leica Application Suite Advanced Fluorescence software suite."}, "[2]": {"test_system": "SKOV-3", "assay": "Disruption of intracellular microtubule network (immunofluorescence)", "assay_type": "cell-based, human", "details": "SKOV-3 (T-DM1 eligible), 5 nM ADC overnight", "method": "as §1"}, "[3]": {"test_system": "MCF-7", "assay": "In vitro cytotoxic activity (Cell Titer Glo)", "assay_type": "cell-based, human", "details": "MCF-7, 3 to 4 days", "description": "(§2) Briefly, cells were harvested, resuspended, and plated in serum-containing culture media at a density of 5,000 to 20,000 per well (depending on the growth kinetics of each cell line) of 96-well plates in a volume of 100 μL. A 2× concentration of each dose of antibody or ADC to be tested was prepared by diluting the test articles in culture medium. One hundred microliters of each test article was added to cells in triplicate such that the final dose curve ranged from 5 nM down to 0.08 pM in a stepwise 1:4 serial dilution series. The treated cells were incubated at 37° C./5% CO2 for 3 to 4 days, depending on the growth kinetics of each particular cell line. Cell viability was determined using Cell Titer Glo according to manufacturer's instructions. Data are analyzed by the GraphPad Prism software and presented as percent growth inhibition relative to the untreated control."}, "[4]": {"test_system": "MDA-MB-468", "assay": "In vitro cytotoxic activity (Cell Titer Glo)", "assay_type": "cell-based, human", "details": "MDA-MB-468, 3 to 4 days", "description": "as §2"}, "[5]": {"test_system": "ST225 model", "assay": "PDX tumor model (HER2-3+ breast cancer)", "assay_type": "in vivo, Athymic nude mice", "details": "Bs2-4T at 3 mg/kg", "method": "All mouse experiments were carried out in compliance with the guidelines published by the Association for Assessment and Accreditation of Laboratory Animal Care (AAALAC) and protocols approved by the MedImmune Institutional Animal Care and Use Committee. Athymic nude mice between 4-8 weeks of age were used in the studies. In subcutaneous CBX models, animals were injected unilaterally on the right flank with tumor cells harvested from culture at a specific passage lot. In orthotopic CBX models, xenografts were established by injecting 5×10^6 cells per mouse (suspended in 50% matrigel) into the mammary fat pad on the right flank of animals. In PDX models, animals are implanted unilaterally on the flank with tumor fragments harvested from host animals each implanted from a specific passage lot. Pre-study tumor volumes were recorded for each experiment beginning approximately one week prior to its estimated start date. When tumors reach the appropriate tumor volume initiation (TVI) range (typically 150-250 mm^3), animals are randomized into treatment and control groups and dosing initiated. […] Animals were observed daily and tumor dimensions and body weights were measured and recorded twice weekly. Tumor volumes are calculated using the following formula: tumor volume=π÷6 (length×width^2). […]"}, "[6]": {"test_system": "T-DM1 resistant NCI-N87 tumor model", "assay": "In vivo tumor model with acquired T-DM1 resistance", "design": "species or system mice", "details": "weekly intravenous dosing, 3 mg/kg (pertuzumab 10 mg/kg), total of 4 doses", "description": "To establish an in vivo tumor model with acquired T-DM1 resistance, the T-DM1-resistant NCI-N87 cells were injected subcutaneously into the immune-deficient mice. The tumor-bearing mice were treated with 3 mg/kg of T-DM1. It appeared that the in vitro T-DM1 resistance was not fully translated into the in vivo resistance, reflected by considerable variations in tumor growth among animals. Thus, mice with large refractory tumors (˜1000 mm^3 in volume) were selected and the tumor tissue fragments were passaged to new mice until the tumors grew consistently in the presence of weekly treatment of 3 mg/kg T-DM1."}, "[7]": {"test_system": "NCI-N87 and MDA-MB-468 cells co-culture", "assay": "Bystander effect co-culture assay (FACS)", "assay_type": "cell-based, human", "details": "co-culture of HER2-overexpressing NCI-N87 and HER2-null MDA-MB-468, 5 nM, 4 days", "method": "NCI-N87 cells were stably transfected with green fluorescent protein (GFP) and MDA-MB-468 cells were stably transfected with red fluorescent protein (RFP). Both cell lines were harvested, washed, resuspended in culture media and then seeded in the same well of a 6-well plate as co-culture. As a control, each cell line was seeded in a different 6-well plate as single culture (FIG. 28A). To adjust to different growth kinetics, NCI-N87 cells were seeded at 5×10^5 cells/well and MDA-MB-468 cells were seeded at 2×10^5 cells/well. Cells were incubated for 2 days at 37° C./5% CO2. Media were aspirated and fresh media containing 5 nM of antibody or ADC to be tested was added to cells and the plates were incubated for 4 days at 37° C./5% CO2. At the end of treatment, cells in each well were collected, washed, resuspended in 100 μL of ice-cold FACS buffer and then fixed with 2% PFA. Cells were analyzed by a BD LSR II machine and BD FACSDiva™ software. Data were analyzed with FlowJo software."}, "[8]": {"test_system": "MDA-MB-361 cells", "assay_type": "cell-based, human", "details": "MDA-MB-361, 10 pM, relative to untreated control", "description": "MDA-MB-361 cells were cultured under standard tissue culture conditions in Leibovitz's L-15 medium supplemented with 20% FBS. Cells were harvested by trypsinization, washed twice with PBS, and resuspended to 30,000 cells per mL in stem cell medium (SCM: DMEM/F12 supplemented with 20 ng/mL EGF, 10 ng/mL bFGF, 5 mg/mL insulin, 0.4% BSA and 1% knock-out serum replacement). […] At the end of treatment, the primary spheres were harvested, dissociated using 0.05% trypsin and resuspended at a density of 30,000 cells/mL in SCM containing the same antibody treatment as the primary sphere culture. Cells were then plated in triplicate into 96-well ultra-low attachment plates and incubated for 4 days. Sphere cell viability was determined using Cell Titer Glo according to manufacturer's instructions. Data are presented as fold of CSC sphere formation relative to the untreated control."}, "[9]": {"test_system": "NCI-N87 cell", "assay": "Proliferation inhibition assay in serum-containing media", "assay_type": "cell-based, human", "method": "Cell viability was determined using Cell Titer Glo from Promega according to manufacturer's instructions."}, "[10]": {"target": "HER2 (Homo sapiens, UniProt P04626)", "assay": "FACS-based binding competition assay with labeled 39S", "design": "endogenous in cells; host or cells: BT-474", "details": "BT-474 cells, 2 ug/mL labeled 39S", "method": "BT-474 cells were harvested, resuspended in FACS buffer, and 2.5×10^5 cells/well were added to a 96-well U-bottom plate. […] After 1 hour of staining on ice, cells were washed 3 times with ice-cold FACS buffer and then fixed with 2% PFA. Cells were analyzed by a BD LSR II machine with BD FACSDiva™ software. Data were analyzed with FlowJo software and presented as mean MFI±SEM (n=3)."}}, "note": "Entries after “also recorded” stand apart in the source; their conditions may differ."}
{"molecule": "T-DM1 [reference compound]", "values": [{"measurement": "disruption of intracellular microtubule networks", "setting": "[1]", "result": "inactive"}, {"measurement": "disruption of intracellular microtubule networks", "setting": "[2]", "result": "capable of disrupting microtubule networks"}, {"measurement": "In vitro potency (EC50 in pM)", "setting": "[3]", "result": "Inactive"}, {"measurement": "In vitro potency (EC50 in pM)", "setting": "[4]", "result": "Inactive"}, {"measurement": "in vivo activity (tumor growth)", "setting": "[5]", "result": "tumor stasis"}, {"measurement": "in vivo activity (tumor growth)", "setting": "[6]", "result": "resistant"}, {"measurement": "bystander effect", "setting": "[7]", "result": "does not have bystander effect"}, {"measurement": "inhibition of CSC sphere formation", "setting": "[8]", "result": "no activity"}]}
{"molecule": "B1", "values": [{"measurement": "inhibition of cell proliferation", "setting": "[9]", "result": "limited activity"}, {"measurement": "inhibition of cell growth in combination", "setting": "[9]; combined with trastuzumab or pertuzumab", "result": "strong synergistic effect"}, {"measurement": "competition for binding / epitope", "setting": "[10]", "result": "does not compete with trastuzumab or pertuzumab; also recorded: binds to the same epitope as its parental antibody AZ1.39.1"}]}
